This note sets out measurements from patent US20080153792A1, “Drug Identification and Treatment Method” (priority 2006, published 2008).

The term IC50 denotes the concentration needed to halve the response being measured. Usually melting point stands for the temperature of the solid-liquid transition. The EC50 is the concentration needed to bring the measured effect to its halfway point.

Series [1] has as its system osteoblasts and osteocytes in murine vertebral bone. The series can be described thus: osteoblast and osteocyte apoptosis in ovariectomized mice (TUNEL). Type of series: in vivo, mouse. As to conditions: ovariectomized Swiss Webster mice. From the text:
The degree of apoptosis of osteoblasts and osteocytes in murine vertebral bone as a function of estrogen deficiency was examined. Swiss Webster mice (four months old) were ovariectomized. Twenty-eight days later, the animals were sacrificed, vertebrae were isolated, fixed and embedded, and then undecalcified in methacrylate.

For series [2], the system named is NF-κB in spleen cells of ICR mice. The series can be described thus: activated NF-κB in spleen cell nuclei after LPS, Example 8. Type of series: in vivo, mouse. As to conditions: about 40 mg/kg i.p. 24 h before and 1 h after LPS; spleens 1.5 hours after LPS. On the procedure: The capacity of selected compounds to treat LPS induced shock/inflammation in mice was examined by a protocol similar to the protocol described above. Five groups of three ICR mice weighing about 30 g were each treated by intraperitoneal injection with 120 μL vehicle (30% sulfobutylether-cyclodextrin in water), androst-5-ene-3α,7β,16α,17β-tetrol in vehicle, androst-5-ene-3β,4β,16α,17β-tetrol in vehicle or 4β-acetoxyandrost-5-ene-3β,16α,17β-triol in vehicle. All drug and vehicle formulations were solutions, not suspensions. The sulfobutylether-cyclodextrin was obtained commercially (Captisol™, www.cyclexinc.com). There were two vehicle control groups one group received vehicle alone and the other received vehicle plus LPS. […] Drug was administered at about 40 mg/kg (1.2 mg drug/animal for each administration of the drugs). Spleens were harvested from the animals at 1.5 hours after injection of LPS and spleen cells were lysed and assayed for activated NF-κB by isolating nuclei from spleen cells and measuring NF-κB from the lysed nuclei. […] The level of activated NF-κB in spleen cells from the animals that were treated with vehicle and no LPS, was essentially the same as the activated NF-κB in spleen cells from drug treated animals.

The test system of the next series is female SJL mice, EAE. The series can be described thus: experimental autoimmune encephalomyelitis (EAE), PLP-induced, Example 23. The format is in vivo, mouse. As to conditions: 0.1 mg q.d. po from clinical onset.
A further series relates to MG-63 cells. The series can be described thus: reversal of glucocorticoid effects in MG-63 osteosarcoma cells. The format is cell-based, human.
Series [3] can be described thus: metabolic stability in liver microsomes: human. As to conditions: 10 min. On the procedure:
(§1) The protocol was performed as follows. […] (2) Set up samples as follows. […] (4) The internal standard/acetonitrile solution.
A general note: Liver microsomes are vesicles of endoplasmic reticulum, rich in cytochrome P450 enzymes.

Series [4] is described as follows: metabolic stability in liver microsomes: mouse. As to conditions: 10 min. On the procedure:
as §1

A short description of series [5]: other protocols: degree of sulfation and glucuronidation.
The next series relates to NF-κB. The series can be described thus: NF-κB-bla THP-1 β-lactamase reporter assay. The format is cell-based, human. On the technique in general: In a reporter assay the amount or activity of a reporter protein is the signal.
Series [6] relates to BALB/c mice, OVA sensitized and challenged. The series can be described thus: ovalbumin (OVA) sensitized mouse model of asthma. As to conditions: for IL-13: s.c. once daily, dexamethasone 5 mg/kg, compound 1 mg/mouse. The format is in vivo. On the procedure:
BALB/c mice were sensitized by intraperitoneal injection with OVA (in alum adjuvant) on days 1, and 12. Airways were challenged with OVA on days 28 and 30 by delivery of OVA to the lung, or with saline. […] The remaining animals were divided into 6 groups (6 mice per group). Groups of the mice were treated once daily by subcutaneous injection as follows. Group 1 vehicle control (0.1% carboxymethyl cellulose, 0.9% saline, 2% tween 80, 0.05% phenol). Group 2 dexamethazone (5 mg/kg). Group 3 3α,16α,17α-trihydroxyandrostane (1 mg/mouse). Three animals in groups 1-3 were sacrificed on day 35 at 1 hr after final treatment and the remaining 3 animals in groups 1-3 were sacrificed on day 38.

The test system of series [7] is BALB/C mice, TNP-OVA sensitized. The series can be described thus: reporter antigen popliteal lymph node (PLN) assay. Type of series: in vivo, mouse. As to conditions: 5 μg/day by subcutaneous injection; day 5. An excerpt: Analysis of immune suppression. Glucocorticoid steroids such as dexamethasone or hydrocortisone are typically immune suppressive and have significant toxicities associated with their use. Immune suppression was examined in a reporter antigen popliteal lymph node assay in mice essentially as previously described (C. Goebel et al., Inflamm. Res., 45(Suppl. 2):S85-S90, 1996; R. Pieters et al., Environmental Health Perspectives 107(Suppl. 5):673-677,1999). […] In this protocol, the vehicle was 0.1% carboxymethylcellulose, 0.9% saline, 2% tween 80 and 0.05% phenol, which contained 17α-ethynylandrost-5-ene-3β,7β,17β-triol in suspension in drug treated animals. Assessment of activity included (1) measuring suppression of numbers of total lymphocytes, antigen specific IgM, IgG1 and IgG2a antibody secreting cells (ASC) (ELISPOT assay) in popliteal lymph node cells; (2) analysis of cell surface marker (CD4, CD8, CD19, F480, CD80, CD86) expression by flow cytometry of living cells in suspension; and (3) IL-4, TNFα and IFNγ production by lymphocytes in vitro (ELISA).
Groups (n=5 per group) of specific pathogen free BALB/C mice were used. The Positive control group was treated with vehicle (oral gavage) and 5 μg/day dexamethasone by subcutaneous injection to induce immune suppression. Vehicle control animals (negative control) were treated with vehicle alone (oral gavage). One group of animals was treated with 17α-ethynylandrost-5-ene-3β,7β,17β-triol at 0.1 mg/day by oral gavage. Another group was treated with 1 mg/day of 17α-ethynylandrost-5-ene-3β,7β,17β-triol was administered to the animals oral gavage. The results were analyzed by two-tailed Student's t-test with equal variance. The animals were injected in the right hind footpad with 50 μL of freshly prepared sensitizing dose of TNP-OVA. Dexamethasone (decadron phosphate injection; dexamethasone sodium phosphate) was administered by subcutaneous injection into the nape of the neck daily, immediately following sensitization with TNP-OVA. 17α-Ethynylandrost-5-ene-3β,7β,17β-triol was given immediately afterwards by gavage. Five days after injection of TNP-OVA, blood was drawn by orbital puncture, and the mice were euthanized by cervical dislocation and popliteal lymph nodes were removed and separated from adherent fatty tissue. Single cell suspensions were prepared, resuspended in 1 mL PBS-BSA (1%) and counted. Cell numbers, IL-4, IL-5 and IFNγ were measured.

In series [8] the test system is mice treated daily with dexamethasone. The series is described as follows: osteoprotegerin levels in dexamethasone treated mice. The format is in vivo, mouse. As to conditions: vehicle and dexamethasone at 10 μg/day for 23 days (positive control group). On the procedure:
Osteoprotegerin levels in mice that were treated with vehicle and dexamethasone at 10 μg/day (positive control group) had 3.3 pMol/L osteoprotegerin, while animals treated with vehicle, dexamethasone and 17α-ethynyl-5-androstene-3β,7β,17β-triol at 4 mg/kg/day had 6.4 pMol/L osteoprotegerin (p<0.05).

As for `C[C@]12CC[C@H]3[C@@H](CCC4=C[C@H](O)CC[C@@H]43)[C@@H]1CC[C@@H]2O` [4-estrene-3α,17β-diol], in [1], the “osteoblast and osteocyte apoptosis” value is on record as “reduce apoptosis”.

`C[C@]12CC[C@H]3[C@@H]([C@@H](O)C=C4C[C@H](O)CC[C@@]43C)[C@@H]1C[C@@H](O)[C@@H]2O` [androst-5-ene-3α,7β,16α,17β-tetrol]: in series [2], the “decrease of NF-κB activation compared to LPS+vehicle control group” value is recorded as “about 50%”. Besides, the “course of EAE compared to vehicle-treated mice” value in the series with female SJL mice, EAE is listed as “very similar to that observed in the vehicle-treated mice”. Further, the “osteoprotegerin levels in the presence of 30 nM dexamethasone” value with MG-63 cells (10 nM compound) is “normal osteoprotegerin levels”. Besides, the “parent remaining human microsomes” value in [3] is on record as 100% (10 min). For the same molecule, the “parent remaining mouse microsomes” value in series [4] is recorded as 100% (10 min). Also, the “degree of sulfation and degree of glucuronidation compared to diols” value in series [5] is given as “low”.

`C[C@]12CC[C@H]3[C@@H](CCC4C[C@H](O)[C@@H](O)C[C@@]43C)[C@@H]1C[C@@H](O)[C@@H]2O` (stereo partly drawn) [androstane-2β,3α,16α,17β-tetrol] yielded a melting point of 260 to 263 °C. Besides, in the series on NF-κB (Homo sapiens, THP-1, read-out: IC50, this protocol), the half-maximal inhibitory concentration (IC50) was more than 10000 nM.

On to `C[C@@H]1C[C@H]2[C@@H]3CCC4=CC(=O)C=C[C@]4(C)[C@@]3(F)[C@@H](O)C[C@]2(C)[C@@]1(O)C(=O)CO` [dexamethasone, reference compound], for which the IL-13 in [6] (day 35) was 340 pg/mL; in series [6] (day 38), 390 pg/mL. The “IL-5 in lung tissue” value in series [6] (day 38) worked out at 145 pg/mL. For the same molecule, the EC50 with NF-κB (Homo sapiens, THP-1, TNFα stimulation, average of 5 assays, read-out: EC50 for decreasing the effect of TNFα) worked out at 0.47 nM. The “maximum NF-κB inhibition” value with NF-κB (this protocol) came to 100%. In addition, in [7], the “average number of lymphocytes in PLNs” value is 2.9×10^6 per lymph node. In the series on MG-63 cells (dexamethasone 30 nM, compounds at 10 nM in the presence of 30 nM dexamethasone, vehicle control 0.25), the “11β-HSD mRNA” value came to 1.0 units. For the same molecule, the IL-8 in the series on MG-63 cells (dexamethasone 30 nM, compounds at 10 nM in the presence of 30 nM dexamethasone, vehicle control 0.90) was 0.12 units. Further, the IL-6 with MG-63 cells (dexamethasone 30 nM, compounds at 10 nM in the presence of 30 nM dexamethasone, vehicle control 6.2) was 1.3 pg/mL. The osteoprotegerin with MG-63 cells (dexamethasone 30 nM, vehicle control 445) turned out to be 280 pmol/L; in [8], 3.3 pmol/L.
